Data on three compounds can be found in patent US7892574B2, “Topical administration of oxazolidinones for transdermal delivery” (Pharmacia & Upjohn Company, LLC, priority 1998, dated 2011).

Type in all cases: in vivo
For one experiment, the system named is acne. The experiment can be described thus: Human who has acne treated with an Oxazolidinone ointment. Conditions: person, ointment containing 30 mg/ml, topical, twice daily. How it is done: A Human Who has Acne is Treated with an Oxazolidinone Ointment
The test system of another experiment is otitis media. Briefly: Human who has an ear infection treated with Oxazolidinone solution. The following applies: child, ten drops of solution containing 10 mg/ml into the ear twice daily for ten days; before 10 days. How it is done:
A Human Who has an Ear Infection is Treated with Oxazolidinone Solution
Ten drops of a solution containing 10 mg/ml of (S)-N-[[3-[3-fluoro-4-(4-morpholinyl)phenyl]-2-oxo-5-oxazolidinyl]methyl]acetamide is dropped into the ear twice daily for ten days with an eye dropper and is immediately followed by closing the outer ear canal with cotton.

The test system of another experiment is wound infection. Briefly: Human with wound infection treated with Oxazolidinone gel. The following applies: person, punctured finger, gel containing 1%, twice daily for 10 days. On the procedure:
Human with Wound Infection is Treated with Oxazolidinone Gel
A 65 kg person who has a severely swollen and painful finger with a history of having punctured the finger on a rose thorn two days previously is treated by administering a gel containing 1% N-((5S)-3-(3-fluoro-4-(4-(2-fluoroethyl)-3-oxopiperazin-1-yl)phenyl)-2-oxooxazolidin-5-ylmethyl)acetamide twice daily for 10 days. The site of inflammation is kept lightly covered with a sterile bandage following antibiotic therapy.

In the case of `CC(=O)NC[C@H]1CN(c2ccc(N3CCN(C(=O)CO)CC3)c(F)c2)C(=O)O1` [Example 1, (S)-N-[[3-[3-Fluoro-4-[4-(hydroxyacetyl)-1-piperazinyl]-phenyl]-2-oxo-5-oxazolidinyl]methyl]acetamide], the “reddened and swollen pustules after administration” value in the experiment on acne is given as “greatly reduced”. For the compound `CC(=O)NC[C@H]1CN(c2ccc(N3CCOCC3)c(F)c2)C(=O)O1` [Example 2, (S)-N-[[3-[3-Fluoro-4-(4-morpholinyl)phenyl]-2-oxo-5-oxazolidinyl]methyl]acetamide], in the experiment with otitis media, the fever entry is “the fever is down” and the pain result was “the pain is gone”. In the case of `CC(=O)NC[C@H]1CN(c2ccc(N3CCN(CCF)C(=O)C3)c(F)c2)C(=O)O1` [Example 4, N-((5S)-3-(3-Fluoro-4-(4-(2-fluoroethyl)-3-oxopiperazin-1-yl)phenyl)-2-oxooxazolidin-5-ylmethyl)acetamide], the wound healing entry in the experiment with wound infection is “The wound heals”.
